Measured values as given in ChEMBL document CHEMBL3885861, “Open TG-GATES”.

Species on record: Rattus norvegicus
Assay: Open TG-GATES - Regimen: Daily Repeat
Type: toxicity, organism-based, Sprague-Dawley
Parameters: regimen Daily Repeat, gender Male, age 6 weeks
Conditions: in vivo, po, 0 mg/kg, route gavage, dose level Control; for APTT / Bas / Eos / Fbg / Hb / Ht / Lym / MCH / MCHC / MCV / Mono / Neu / PT / Plat / RBC / Ret / WBC: tissue Blood; for KIDNEY_L / KIDNEY_R / KIDNEY_TOTAL: tissue Kidney; for LIVER: tissue Liver; for A/G / ALP / ALT / AST / BUN / CRE / Ca / Cl / DBIL / GLC / IP / K / LDH / Na / PL / RALB / TBIL / TC / TG / TP / gamma-GTP: tissue Plasma

CCc1oc2ccccc2c1C(=O)c1cc(I)c(O)c(I)c1 [BENZIODARONE]
TERMINAL_BW (72 h, time 3 day): 239.1 g | APTT (72 h, time 3 day): 17.3 s | Bas (72 h, time 3 day): 0% | Eos (72 h, time 3 day): 0.8% | Fbg (72 h, time 3 day): 216.8 mg/dL | Hb (72 h, time 3 day): 14.1 g/dL | Ht (72 h, time 3 day): 41.9% | Lym (72 h, time 3 day): 76.2% | MCH (72 h, time 3 day): 21.4 pg | MCHC (72 h, time 3 day): 33.7% | MCV (72 h, time 3 day): 63.6 fL | Mono (72 h, time 3 day): 7% | Neu (72 h, time 3 day): 15.6% | PT (72 h, time 3 day): 11.7 s | Plat (72 h, time 3 day): 125.7 x10_4/uL | RBC (72 h, time 3 day): 658.4 x10_4/ul | Ret (72 h, time 3 day): 6.2% | WBC (72 h, time 3 day): 99.6 x10_2/uL | KIDNEY_L (72 h, time 3 day): 1.1 g | KIDNEY_R (72 h, time 3 day): 1.1 g | KIDNEY_TOTAL (72 h, time 3 day): 2.2 g | LIVER (72 h, time 3 day): 11.6 g | A/G (72 h, time 3 day): 1.8 | ALP (72 h, time 3 day): 882.4 IU/L | ALT (72 h, time 3 day): 39 IU/L | AST (72 h, time 3 day): 62.6 IU/L | BUN (72 h, time 3 day): 17.4 mg/dL | CRE (72 h, time 3 day): 0.5 mg/dL | Ca (72 h, time 3 day): 10.7 mg/dL | Cl (72 h, time 3 day): 104.6 meq/L | DBIL (72 h, time 3 day): 0.014 mg/dL | GLC (72 h, time 3 day): 203.2 mg/dL | IP (72 h, time 3 day): 7.2 mg/dL | K (72 h, time 3 day): 4.7 meq/L | LDH (72 h, time 3 day): 79.6 IU/L | Na (72 h, time 3 day): 141 meq/L | PL (72 h, time 3 day): 147.4 mg/dL | RALB (72 h, time 3 day): 3.7 g/dL | TBIL (72 h, time 3 day): 0.3 mg/dL | TC (72 h, time 3 day): 75.4 mg/dL | TG (72 h, time 3 day): 103.6 mg/dL | TP (72 h, time 3 day): 5.7 g/dL | gamma-GTP (72 h, time 3 day): 1.2 IU/L | TERMINAL_BW ([…], time 7 day): 272.7 g | TERMINAL_BW ([…], time 14 day): 335.3 g | TERMINAL_BW ([…], time 28 day): 397 g | APTT ([…], time 7 day): 16.8 s | Bas ([…], time 7 day): 0% | Eos ([…], time 7 day): 1% | Fbg ([…], time 7 day): 220 mg/dL | Hb ([…], time 7 day): 14.2 g/dL | Ht ([…], time 7 day): 41.6% | Lym ([…], time 7 day): 77.8% | MCH ([…], time 7 day): 21.4 pg | MCHC ([…], time 7 day): 34.1% | MCV ([…], time 7 day): 62.8 fL | Mono ([…], time 7 day): 7.2% | Neu ([…], time 7 day): 14.2% | PT ([…], time 7 day): 11.5 s | Plat ([…], time 7 day): 125.2 x10_4/uL | RBC ([…], time 7 day): 662.2 x10_4/ul | Ret ([…], time 7 day): 4.5% | WBC ([…], time 7 day): 108.6 x10_2/uL | APTT ([…], time 14 day): 17.1 s | Bas ([…], time 14 day): 0% | Eos ([…], time 14 day): 1% | Fbg ([…], time 14 day): 220.6 mg/dL | Hb ([…], time 14 day): 14.2 g/dL | Ht ([…], time 14 day): 41.9% | Lym ([…], time 14 day): 80.8% | MCH ([…], time 14 day): 20.9 pg | MCHC ([…], time 14 day): 34% | MCV ([…], time 14 day): 61.5 fL | Mono ([…], time 14 day): 6% | Neu ([…], time 14 day): 12.6% | PT ([…], time 14 day): 11.5 s | Plat ([…], time 14 day): 115.3 x10_4/uL | RBC ([…], time 14 day): 683.2 x10_4/ul | Ret ([…], time 14 day): 3.1% | WBC ([…], time 14 day): 110 x10_2/uL | APTT ([…], time 28 day): 17.9 s | Bas ([…], time 28 day): 0% | Eos ([…], time 28 day): 1.6% | Fbg ([…], time 28 day): 215.8 mg/dL | Hb ([…], time 28 day): 15.8 g/dL | Ht ([…], time 28 day): 46.8% | Lym ([…], time 28 day): 80% | MCH ([…], time 28 day): 19.5 pg | MCHC ([…], time 28 day): 33.7% | MCV ([…], time 28 day): 57.7 fL | Mono ([…], time 28 day): 5.4% | Neu ([…], time 28 day): 13.4% | PT ([…], time 28 day): 11.9 s | Plat ([…], time 28 day): 117.3 x10_4/uL | RBC ([…], time 28 day): 812.6 x10_4/ul | Ret ([…], time 28 day): 3.1% | WBC ([…], time 28 day): 150.6 x10_2/uL | KIDNEY_L ([…], time 7 day): 1.1 g | KIDNEY_R ([…], time 7 day): 1.2 g | KIDNEY_TOTAL ([…], time 7 day): 2.3 g | KIDNEY_L ([…], time 14 day): 1.3 g | KIDNEY_R ([…], time 14 day): 1.3 g | KIDNEY_TOTAL ([…], time 14 day): 2.6 g | KIDNEY_L ([…], time 28 day): 1.4 g | KIDNEY_R ([…], time 28 day): 1.4 g | KIDNEY_TOTAL ([…], time 28 day): 2.9 g | LIVER ([…], time 7 day): 12.8 g | LIVER ([…], time 14 day): 15.1 g | LIVER ([…], time 28 day): 15.6 g | A/G ([…], time 7 day): 1.7 | ALP ([…], time 7 day): 916.8 IU/L | ALT ([…], time 7 day): 36 IU/L | AST ([…], time 7 day): 62.8 IU/L | BUN ([…], time 7 day): 19.2 mg/dL | CRE ([…], time 7 day): 0.5 mg/dL | Ca ([…], time 7 day): 10.6 mg/dL | Cl ([…], time 7 day): 104.6 meq/L | DBIL ([…], time 7 day): 0.048 mg/dL | GLC ([…], time 7 day): 192 mg/dL | IP ([…], time 7 day): 6.9 mg/dL | K ([…], time 7 day): 4.9 meq/L | LDH ([…], time 7 day): 86 IU/L | Na ([…], time 7 day): 139.6 meq/L | PL ([…], time 7 day): 141.8 mg/dL | RALB ([…], time 7 day): 3.6 g/dL | TBIL ([…], time 7 day): 0.3 mg/dL | TC ([…], time 7 day): 65 mg/dL | TG ([…], time 7 day): 114.2 mg/dL | TP ([…], time 7 day): 5.7 g/dL | gamma-GTP ([…], time 7 day): 1.8 IU/L | A/G ([…], time 14 day): 1.6 | ALP ([…], time 14 day): 789.8 IU/L | ALT ([…], time 14 day): 32.2 IU/L | AST ([…], time 14 day): 63.2 IU/L | BUN ([…], time 14 day): 19.6 mg/dL | CRE ([…], time 14 day): 0.5 mg/dL | Ca ([…], time 14 day): 10.5 mg/dL | Cl ([…], time 14 day): 104.4 meq/L | DBIL ([…], time 14 day): 0 mg/dL | GLC ([…], time 14 day): 201 mg/dL | IP ([…], time 14 day): 6.7 mg/dL | K ([…], time 14 day): 4.9 meq/L | LDH ([…], time 14 day): 97.2 IU/L | Na ([…], time 14 day): 140.6 meq/L | PL ([…], time 14 day): 149 mg/dL | RALB ([…], time 14 day): 3.7 g/dL | TBIL ([…], time 14 day): 0.3 mg/dL | TC ([…], time 14 day): 72.4 mg/dL | TG ([…], time 14 day): 152 mg/dL | TP ([…], time 14 day): 6 g/dL | gamma-GTP ([…], time 14 day): 2 IU/L | A/G ([…], time 28 day): 1.5 | ALP ([…], time 28 day): 606.6 IU/L | ALT ([…], time 28 day): 27 IU/L | AST ([…], time 28 day): 57 IU/L | BUN ([…], time 28 day): 19.8 mg/dL | CRE ([…], time 28 day): 0.6 mg/dL | Ca ([…], time 28 day): 10.6 mg/dL | Cl ([…], time 28 day): 105.6 meq/L | DBIL ([…], time 28 day): 0.04 mg/dL | GLC ([…], time 28 day): 200 mg/dL | IP ([…], time 28 day): 5.7 mg/dL | K ([…], time 28 day): 4.5 meq/L | LDH ([…], time 28 day): 79 IU/L | Na ([…], time 28 day): 140 meq/L | PL ([…], time 28 day): 135 mg/dL | RALB ([…], time 28 day): 3.7 g/dL | TBIL ([…], time 28 day): 0.3 mg/dL | TC ([…], time 28 day): 58 mg/dL | TG ([…], time 28 day): 164.8 mg/dL | TP ([…], time 28 day): 6.2 g/dL | gamma-GTP ([…], time 28 day): 2.2 IU/L
